In general, IC50 refers to the concentration that inhibits the measured activity by half.

Data set [1] has as its target T1, Amine oxidase [flavin-containing] B (Homo sapiens, UniProt P27338).
T1 sequence (P27338 whole entry): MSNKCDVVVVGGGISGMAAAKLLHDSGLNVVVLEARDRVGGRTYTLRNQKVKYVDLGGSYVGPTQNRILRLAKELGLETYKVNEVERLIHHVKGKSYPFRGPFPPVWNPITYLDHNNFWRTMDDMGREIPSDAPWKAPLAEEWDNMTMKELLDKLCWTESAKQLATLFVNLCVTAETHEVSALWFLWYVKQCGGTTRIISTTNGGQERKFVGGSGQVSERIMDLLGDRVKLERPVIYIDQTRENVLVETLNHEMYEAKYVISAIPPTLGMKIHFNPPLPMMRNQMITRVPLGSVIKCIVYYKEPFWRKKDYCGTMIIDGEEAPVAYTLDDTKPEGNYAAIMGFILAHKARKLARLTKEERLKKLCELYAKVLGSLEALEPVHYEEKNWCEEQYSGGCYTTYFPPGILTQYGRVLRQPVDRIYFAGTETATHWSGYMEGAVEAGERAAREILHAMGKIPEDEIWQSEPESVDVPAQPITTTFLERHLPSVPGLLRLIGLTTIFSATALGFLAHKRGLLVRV
The data set is described as follows: Inhibition of human recombinant MAOB at 1 mM by fluorimetric method. To be noted: 1000 µM.

The target in data set [2] is T2, Amine oxidase [flavin-containing] A (Homo sapiens, UniProt P21397).
T2 sequence (P21397 whole entry): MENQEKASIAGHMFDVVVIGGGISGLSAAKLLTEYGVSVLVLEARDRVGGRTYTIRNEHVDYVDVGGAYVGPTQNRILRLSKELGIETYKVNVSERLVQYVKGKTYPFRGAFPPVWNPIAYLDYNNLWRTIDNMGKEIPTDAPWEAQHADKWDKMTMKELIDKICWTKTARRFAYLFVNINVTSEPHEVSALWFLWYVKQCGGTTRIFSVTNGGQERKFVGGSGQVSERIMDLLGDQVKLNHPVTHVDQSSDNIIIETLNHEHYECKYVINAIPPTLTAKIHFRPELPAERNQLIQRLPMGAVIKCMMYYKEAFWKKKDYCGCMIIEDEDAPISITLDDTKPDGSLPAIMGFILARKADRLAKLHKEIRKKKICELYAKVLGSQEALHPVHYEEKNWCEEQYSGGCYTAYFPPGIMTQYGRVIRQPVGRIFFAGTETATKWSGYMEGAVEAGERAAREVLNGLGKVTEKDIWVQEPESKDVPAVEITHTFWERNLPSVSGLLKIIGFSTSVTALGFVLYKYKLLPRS
In words: Inhibition of human recombinant MAOA by fluorimetric method.

Data set [3] is filed under the species Homo sapiens. In words: Selectivity ratio of IC50 for human recombinant MAOA to IC50 for human recombinant MAOB.
Data set [4] deals with T1, Amine oxidase [flavin-containing] B. In words: Inhibition of human recombinant MAOB at 50 uM by fluorimetric method.
Data set [5] has the same target.
Description: Inhibition of human recombinant MAOB by fluorimetric method
Data set [6] concerns the target T2, Amine oxidase [flavin-containing] A. The data set is described as follows: Inhibition of human recombinant MAOA at 100 uM by fluorimetric method.
Data set [7] concerns the target T1, Amine oxidase [flavin-containing] B. The data set is described as follows: Inhibition of human recombinant MAOB at 100 uM by fluorimetric method.
Data set [8] addresses T2, Amine oxidase [flavin-containing] A. The data set is described as follows: Inhibition of human liver MAOA.
Data set [9] has as its target T1, Amine oxidase [flavin-containing] B. In words: Inhibition of human liver MAOB.

For the molecule `CC(=O)[C@@]1(O)CC[C@H]2[C@@H]3C[C@H](C)C4=CC(=O)CC[C@]4(C)[C@H]3CC[C@@]21C`, the Activity result in data set [1] was “Not Active”.
For `COc1c(OC2CCCCC2=O)ccc2c(C)cc(=O)oc12` (stereo not drawn), in [2], the IC50 came to 15.4 µM. Further, the Ratio IC50 in [3] is less than 0.31. Moreover, the Activity entry in [4] is recorded as “Not Active”.
As for `Cc1cc(=O)oc2cc(OC3CCCC3=O)ccc12` (stereo not drawn), the IC50 in [2] amounted to 0.0405 µM; in data set [5] it was 5.57 µM. Further, the Ratio IC50 in data set [3] is 0.0073.
As to `COc1c(O)ccc2cc(N)c(=O)oc12`, the Activity result in [6] and in data set [7] was “Not Active” each time.
`COc1cc(O)cc2oc(=O)ccc12`: the Activity entry in [6] and in data set [7] was “Not Active” throughout.
Regarding `Cc1cc(=O)oc2c(C)c(O)ccc12`, the Activity result in [6] was “Not Active”. The IC50 in data set [5] was found to be 71.3 µM.
Take `COc1cc(OC2CCCCC2=O)cc2oc(=O)ccc12` (stereo not drawn): in data set [2], the IC50 was 20.4 µM. Besides, in data set [3], the Ratio IC50 was less than 0.41. In data set [4], the Activity result is recorded as “Not Active”.
For `COc1c(OCC(C)=O)ccc2c3c(c(=O)oc12)CCC3`, the figures for the IC50 in data set [2] and in [5] were 0.121 µM and 13 µM, respectively. In addition, the Ratio IC50 in data set [3] worked out at 0.0093.
On to `Cc1cc(=O)oc2c(C)c3oc4c(c3cc12)CCC4`, for which the IC50 in data set [2] is 32.8 µM; in data set [5], 73.2 µM. The Ratio IC50 in data set [3] was determined as 0.45.
For the molecule `Cc1cc(=O)oc2c(C)c3oc4c(c3cc12)CCCC4`, the Activity entry in data set [6] and in [7] was “Not Active” throughout.
As to `Cc1c(O)ccc2c3c(c(=O)oc12)CCC3`, the Activity entry in [6] and in data set [7] was “Not Active” throughout.
For the molecule `COc1c2ccc(=O)oc2cc2occ(C)c12`, the 50% inhibitory concentration (IC50) in data set [2] is 255 µM; in data set [5], 260 µM. Further, the Ratio IC50 in data set [3] was 0.98.
Regarding `COc1c(OCC(C)=O)ccc2c3c(c(=O)oc12)CCCC3`, the IC50 is 0.396 µM in data set [2] and 12.1 µM in [5]. Further, the Ratio IC50 in data set [3] was 0.033.
For `CC(=O)COc1ccc2c(oc(=O)c3ccccc32)c1C` the same measures were 2.56 µM, 28.1 µM and 0.091.
In the case of `C=C(Br)COc1ccc2c3c(c(=O)oc2c1C)CCC3`, the IC50 in data set [2] worked out at 0.13 µM; in data set [5], 0.00118 µM. Further, the Ratio IC50 in data set [3] was 110.
For `C=C(Br)COc1ccc2c3c(c(=O)oc2c1C)CCCC3`, the IC50 in data set [2] came to 0.695 µM; in data set [5], 0.236 µM. Besides, the Ratio IC50 in data set [3] turned out to be 2.94.
With `CC(=O)COc1ccc2c3c(c(=O)oc2c1C)CCC3`, the IC50 in [2] came to 0.235 µM; in data set [5] it was 0.165 µM. For the same molecule, the Ratio IC50 in [3] stood at 1.42.
Take `COc1c(O)ccc2c3c(c(=O)oc12)CCCC3`: the Ratio IC50 in [3] is greater than 1.99. Moreover, the Activity result in [6] was “Not Active”. The IC50 in data set [5] was 50.2 µM.
For `COc1cc(OCC(C)=O)cc2oc(=O)ccc12` the same measures were greater than 2.27, “Not Active” and 44.1 µM.
Turning to `O=NN(CCCl)C(=O)NC[C@@H](O)[C@H](O)CN(N=O)C(=O)NCCCl`, in [1], the Activity result was “Not Active”.
As to `Cc1cc(=O)oc2c(C)c(OC3CCCC3=O)ccc12` (stereo not drawn), the IC50 in [2] came to 0.00716 µM; in [5] it was 10.6 µM. Moreover, in [3], the Ratio IC50 worked out at 0.00067.
For `Cc1cc(=O)oc2c(C)c(OC3CCCCC3=O)ccc12` (stereo not drawn) the same measures were 0.4 µM, 3.87 µM and 0.1.
In the same order, the values of `COc1c2occc2cc2cc(N)c(=O)oc12` are 12.2 µM, 16.5 µM and 0.74.
As for `Cc1c(O)ccc2c3c(c(=O)oc12)CCCC3`, in [2], the IC50 was 60.1 µM. The Ratio IC50 in data set [3] is less than 0.6. The Activity result in [7] is reported as “Not Active”.
Take `CS(=O)(=O)OC[C@@H]1O[C@H]1[C@@H]1O[C@H]1COS(C)(=O)=O`: the Activity entry in data set [1] is given as “Not Active”.
With `COc1c(OCC(C)=O)ccc2c1oc(=O)c1ccccc12`, the 50% inhibitory concentration (IC50) in data set [2] is 11.9 µM; in data set [5] it was 9.36 µM. For the same molecule, the Ratio IC50 in data set [3] came to 1.27.
For the molecule `C=C1[C@@H](C)[C@H]2[C@H](Cc3ccccc3)NC(=O)[C@]23OC(=O)/C=C/[C@H](O)CCC[C@@H](C)C/C=C/[C@H]3[C@@H]1O` [CYTOCHALASIN B], the Activity result in data set [1] was “Not Active”.
For `CN(C)/N=N/c1[nH]cnc1C(N)=O` [DACARBAZINE], the Activity entry in data set [1] and in data set [8] was “Not Active” throughout.
`NS(=O)(=O)c1cc(Cl)c(Cl)c(S(N)(=O)=O)c1` [DICHLORPHENAMIDE]: the Activity result in data set [1] is on record as “Not Active”.
`C[C@H]1O[C@@H](O[C@H]2[C@@H](O)C[C@H](O[C@H]3[C@@H](O)C[C@H](O[C@H]4CC[C@@]5(C)[C@H](CC[C@@H]6[C@@H]5CC[C@]5(C)[C@@H](C7=CC(=O)OC7)CC[C@]65O)C4)O[C@@H]3C)O[C@@H]2C)C[C@H](O)[C@@H]1O` [DIGITOXIN]: the Activity entry in data set [6], in [8] and in data set [9] was “Not Active” throughout.
In the case of `C[C@H]1O[C@@H](O[C@H]2[C@@H](O)C[C@H](O[C@H]3[C@@H](O)C[C@H](O[C@H]4CC[C@@]5(C)[C@H](CC[C@@H]6[C@@H]5C[C@@H](O)[C@]5(C)[C@@H](C7=CC(=O)OC7)CC[C@]65O)C4)O[C@@H]3C)O[C@@H]2C)C[C@H](O)[C@@H]1O` [DIGOXIN], the Activity result in data set [6], in [8] and in data set [9] was “Not Active” each time.
For the molecule `C1OC1CN1CCC(C2CCN(CC3CO3)CC2)CC1` (stereo not drawn) [EPIPROPIDINE], the Activity entry in data set [1] is given as “Not Active”.
Still for that read-out and setting: the entry for `CN1C[C@H](C(=O)N[C@]2(C)O[C@@]3(O)[C@@H]4CCCN4C(=O)[C@H](Cc4ccccc4)N3C2=O)C=C2c3cccc4[nH]cc(c34)C[C@H]21` [ERGOTAMINE] is “Not Active”; for `N=c1nc2n(cc1F)[C@@H]1O[C@H](CO)[C@@H](O)[C@@H]1O2` [FLUROCITABINE] it is “Not Active”; for `O=CN(O)CC(=O)O` [HADACIDIN] it is “Not Active”.
Regarding `Cc1cc(=O)oc2cc(O)ccc12` [HYMECROMONE], the Activity result in data set [6] was “Not Active”. This molecule yielded an IC50 in [5] of 80.4 µM.
With `CCCOC1=C(N2CC2)C(=O)C(OCCC)=C(N2CC2)C1=O` [INPROQUONE], the Activity entry in data set [1] is on record as “Not Active”.
As for `N[C@@H](Cc1ccc(O)c(O)c1)C(=O)O` [LEVODOPA], the Activity result in [1] is on record as “Not Active”.
On the same count and under the same terms, in the case of `CCN(CC)CC(=O)Nc1c(C)cccc1C` [LIDOCAINE] it was “Not Active”.
On the same count and under the same terms, in the case of `C[C@@H]1O[C@@H](O[C@H]2C[C@](O)(C(=O)CO)Cc3c(O)c4c(c(O)c32)C(=O)c2ccccc2C4=O)C[C@H](N)[C@@H]1O` [MEDORUBICIN] it was “Not Active”.
The same measure, in the same setting: in the case of `CN(Cc1cnc2nc(N)nc(N)c2n1)c1ccc(C(=O)N[C@@H](CCC(=O)O)C(=O)O)cc1` [METHOTREXATE] it was “Not Active”; in that of `COC(F)(F)C(Cl)Cl` [METHOXYFLURANE], “Not Active”.
On to `O=C(NCCN1CCOCC1)c1ccc(Cl)cc1` [MOCLOBEMIDE], for which the Activity entry in [1] is given as “Not Active”.
`CC(C)(S)[C@@H](N)C(=O)O` [PENICILLAMINE]: the Activity entry in [6], in data set [8] and in data set [9] was “Not Active” each time.

The values are drawn from ChEMBL document CHEMBL1152129, “Quantitative structure-activity relationship and complex network approach to monoamine oxidase A and B inhibitors” (J Med Chem, 2008).
